Non-standard residues stand in square brackets, D forms with d. No end group written: not given here. 2Nal = N[C@@H](Cc1ccc2ccccc2c1)C(=O)O; Sar = CNCC(=O)O
How the values were obtained:
carboplatin treated mice [1] = assay: Example 1: increasing doses one day after carboplatin, anemia in mice; type: in vivo, BALB/c mouse
Experimental: (§1) The effects of PEGylated TPO Compound No. 1 on mice treated with carboplatin were observed. For all examples herein, a 10 mg/ml stock solution of PEGylated TPO Compound No. 1 was prepared in sterile saline. For mixing, the preparation was placed on a gyratory shaker for 15 mm. at 200 rpm. This method was used to dissolve PEGylated TPO Compound No. 1 without foaming. The stock was filtered using a GV Millex (0.22 μm) filter. Dosing solutions were then prepared from this stock using sterile saline. The stock and dosing solutions were prepared fresh on the day of use.
The effect of PEGylated TPO Compound No. 1 on the duration and severity of anemia following treatment of mice with carboplatin as determined by changes in hemoglobin levels, red blood cell count and hematocrit, was observed. For this study, increasing amounts of PEGylated TPO Compound No. 1 were administered to mice one day following a carboplatin dose to characterize a possible dose-dependent effect on various red blood cell parameters.
The groups of mice were treated with either carboplatin or vehicle (Phosphate Buffered Saline, PBS) by intraperitoneal administration on Days −2 and −1 as delineated below. The optimal dose of carboplatin used to induce thrombocytopenia in the BALB/c mouse strain was previously determined to be a fractionated total dose of 120 mg/kg given as two consecutive daily injections (i.e., 2×60 mg/kg). One day following the second dose of carboplatin, groups of mice were treated with PEGylated TPO Compound No. 1 or vehicle (sterile saline, SS, preservative-free 0.90% sodium chloride) by IV (bolus) injection as delineated in Table 1. The dose was administered on a per-weight basis (100 μl/10 g body weight).
On Days 5, 7, 9 and 11, five mice in each test group were weighed and then euthanised using CO2-asphyxiation and exsanguinations via cardiac puncture. The blood samples were transferred to separate EDTA (lavender-top) microcontainers for hematologic evaluation. Groups of control mice (5) were processed on Days 5 and 11. The data are presented graphically as group means +SEM.

carboplatin treated mice [2] = assay: Example 3: dosing at various times after carboplatin, anemia in mice; type: in vivo, BALB/c mouse
Experimental: as §1
The effect of PEGylated TPO Compound No. 1 on the duration and severity of anemia following dosing regimens in which PEGylated TPO Compound No. 1 is administered at various times following the carboplatin treatment was observed. For this study, an amount of PEGylated TPO Compound No. 1 was administered to mice, one (1) hour, one (1) day or four (4) days following a carboplatin dose.
(§2) The groups of mice were treated with either carboplatin or vehicle (Phosphate Buffered Saline, PBS) by ip administration on Days −1 and 0 as delineated below. The optimal dose of carboplatin used to induce thrombocytopenia in the BALB/c mouse strain was previously determined to be a fractionated total dose of 120 mg/kg given as two consecutive daily injections (i.e., 2×60 mg/kg). One hour (Day 0), one day (Day 1) or four days (Day 4) following the second dose of carboplatin, groups of mice were treated with PEGylated TPO Compound No. 1 (300 μg/kg) or vehicle (sterile saline, SS, preservative-free 0.9% sodium chloride) by IV (bolus) injection as delineated in Table 3. The dose was administered on a per-weight basis (100 μl/10 g body weight).
On Days 6, 8, 10 & 12, five mice in each test group were weighed and then euthanised using CO2-asphyxiation and exsanguinations via cardiac puncture. The blood samples were transferred to separate EDTA (lavender-top) microcontainers for hematological evaluation. Groups of control mice (5) were processed on Days 6 & 12. The data are presented graphically as group means +SEM.

carboplatin-treated mice = assay: Example 4: lower doses, survival of erythrocyte lineages in carboplatin-treated mice; type: in vivo, BALB/c mouse
Experimental: as §1
The ability of PEGylated TPO Compound No. 1 to function as a survival factor for megakaryocyte and erythrocyte lineages in carboplatin-treated mice as determined by changes in hematological parameters was observed. […] In this study, the effect of lower doses of PEGylated TPO Compound No. 1 (i.e., 30, 100 and 300 μg/kg) on the survival of erythrocyte lineages was examined to characterize the dose-response for this effect.
as §2, with “Approximately one” for “One”, “hour” for “hour (Day 0), one day (Day 1) or four days (Day 4)”, “1” for “1 (300 μg/kg)”, “4.” for “3.”
On Days 6, 8 and 12, five mice in each test group were weighed and then euthanised using CO2-asphyxiation and exsanguinations via cardiac puncture. The blood samples were transferred to separate EDTA (lavender-top) microcontainers for hematologic evaluation. Groups of control mice (5) were processed on Days 6 & 12.

carboplatin treated mice [3] = assay: Example 5: two rounds of high-dose carboplatin, hematocrit and survival of mice; type: in vivo, mouse; conditions: between days 4 and 18
Experimental: as §1
Groups of mice were treated with two rounds of the chemotherapeutic agent (carboplatin) ten days apart, with each round consisting of two consecutive days of carboplatin (i.e., 70 mg/kg/day administered on Days −1 & 0 and Days 10 & 11) as delineated below. The dose of carboplatin utilized for these survival studies exceeded the maximal tolerated dose for mice (i.e., 120 mg/kg; administered as 60 mg/kg/day on 2 consecutive days). One hour following the second dose of carboplatin in each round (i.e., Day 0 and 11) mice were treated with PEGylated TPO Compound No. 1 (100 μg/kg) or vehicle (sterile saline, SS, preservative-free 0.9% sodium chloride) by IV (bolus) injection as delineated below. The dose was administered on a per weight basis (100 μl/10 g body weight). […]

Row | Compound | decrease in hemoglobin levels (carboplatin treated mice [1]; carboplatin alone 2×60 mg/kg ip, by Day 11) | decreases in hemoglobin levels, RBC counts and hematocrits (carboplatin treated mice [2]; carboplatin alone 2×60 mg/kg ip, surviving mice (2 mice) by Day 12 compared to control groups) | decrease in hemoglobin levels (carboplatin-treated mice; carboplatin alone 2×60 mg/kg ip, by Day 12) | deaths among mice not utilized for hematological evaluation (carboplatin treated mice [3]; carboplatin alone 70 mg/kg/day, 2 rounds) | carboplatin-associated decreases in RBC count and hematocrit (carboplatin treated mice [1]; 300, 1000, 3000 μg/kg iv one day after carboplatin, no statistical evaluation) | carboplatin-induced decrease in hemoglobin levels (carboplatin treated mice [1]; all doses (300, 1000, 3000 μg/kg iv, one day after carboplatin 2×60 mg/kg ip), by Day 11) | body weight after carboplatin (carboplatin treated mice [1]; all doses tested, 11-Day study period) | altered appearance and behavior (hunched, flaccid, soiled anogenital areas) (carboplatin treated mice [1]; appeared to be dose-dependent) | carboplatin-induced decreases in hemoglobin levels, RBC counts and hematocrits (carboplatin treated mice [2]; 300 μg/kg iv on Day 0 (1 hour after carboplatin) and on Day 1) | weight loss associated with carboplatin treatment (carboplatin treated mice [2]; 300 μg/kg iv on Day 0, Day 1 or Day 4, no statistical analysis) | carboplatin-induced changes in erythrocyte parameters (carboplatin treated mice [2]; 300 μg/kg iv on Day 4) | onset, frequency or severity of signs (hunched, flaccid) (carboplatin treated mice [2]; 300 μg/kg iv, no detailed analysis) | carboplatin-induced anemia (carboplatin treated mice [2]; dosed within 24 hours of chemotherapy) | carboplatin-induced decreases in RBC counts and hematocrit (carboplatin-treated mice; 30, 100, 300 μg/kg iv) | weight loss or recovery (carboplatin-treated mice; 30, 100, 300 μg/kg iv, 13-Day study period) | carboplatin-induced decrease in hemoglobin levels (carboplatin-treated mice; all doses (30, 100, 300 μg/kg iv, about one hour after second carboplatin dose), Day 12) | anemia induced by carboplatin (carboplatin-treated mice; all doses, Day 12) | altered appearance and behavior (hunched, unkempt, soft stool) (carboplatin-treated mice; appeared to be dose-dependent) | deaths among mice not utilized for hematological evaluation (carboplatin treated mice [3]; combination therapy (carboplatin 70 mg/kg/day, 2 rounds, plus 100 μg/kg iv))
1 | N.N.O=C([O-])C1(C(=O)[O-])CCC1.[Pt+2] [carboplatin, reference compound] | ~20% | approx. 47% | greater than 25% | 7 mice |  |  |  |  |  |  |  |  |  |  |  |  |  |  | 
2 | Methoxypolyethyleneglycol20000-propionyl-L-Isoleucyl-L-Glutamyl-Glycyl-L-Prolyl-L-Threonyl-L-Leucyl-L-Arginyl-L-Glutaminyl-L-2-Naphthylalanyl-L-Leucyl-L-Alanyl-L-Alanyl-L-Arginyl-Sarcosyl-Ne-(methoxypolyethyleneglycol20000-propionyl-L-Isoleucyl-L-Glutamyl-Glycyl-L-Prolyl-L-Threonyl-L-Leucyl-L-Arginyl-L-Glutaminyl-L-2-Naphthylalanyl-L-Leucyl-L-Alanyl-L-Alanyl-L-Arginyl-Sarcosyl-)-Lysinamide ({methoxypolyethyleneglycol20000‑propionyl}-IEGPTLRQ[2Nal]LAAR[Sar]K[Sar]RAAL[2Nal]QRLTPGEI; also: dimer: positions 16-29 are the second 14-mer written in reverse, its Sar C-terminus joined to the K15 epsilon-amine, K15 is C-terminal lysinamide (NH2), methoxypolyethyleneglycol20000-propionyl also on Ile29 N-terminus) [PEGylated TPO Compound No. 1] |  |  |  |  | inhibited | inhibited | enhanced the recovery of the lost body weight | decreased the onset, frequency and severity of these signs | prevented | did not appear to affect the weight loss | failed to affect carboplatin-induced changes | did not appear to have a dramatic effect | Prevention of carboplatin-induced anemia is observed | effectively inhibited | did not appear to affect weight loss or recovery | totally inhibited | completely prevent the anemia | decreased the onset, frequency and severity of these signs | 1 mouse

From patent publication US7615533B2, “TPO peptide compounds for treatment of anemia” (Janssen Pharmaceutica N.V., priority 2004, dated 2009)
